In ChEMBL document CHEMBL3856243, “Structure-Activity Relationships and Kinetic Studies of Peptidic Antagonists of CBX Chromodomains” (J Med Chem, 2016):
The source made the active and inactive calls. No cut-off for these calls is given here. Numbered stars: 1 amine (or outer) side, 2 acyl side, 3 side chain; on linkers, the order of the positions; unused ones are H or OH. Square brackets hold non-standard residues; d marks the D form. Peptide text beside a SMILES is read from it. * marks the point of attachment. X17 = CC(=O)N(CCCC[C@H](N[*:1])C(=O)[*:2])C1CC2CCC1C2; X5 = O=C([C@H](CCCCNC1C2CC3CC(C2)CC1C3)N[*:1])[*:2]; X3 = CN(C)C(NCCCC[C@H](N[*:1])C(=O)[*:2])=[N+](C)C; X15 = O=C([C@H](CCCCNC1CN2CCC1CC2)N[*:1])[*:2]; X14 = CCCN(CCCC[C@H](N[*:1])C(=O)[*:2])C(C)C; X8 = O=C([C@H](CCCCNC1CC2CCC1C2)N[*:1])[*:2]; Phe(4-CH2NH2) = NCc1ccc(C[C@H](N)C(=O)O)cc1; X19 = CN(CCCC[C@H](N[*:1])C(=O)[*:2])C1CNC1; Acetyl(2-naphthyl) = O=C(Cc1ccc2ccccc2c1)*; Lys(Et,iPr) = CCN(CCCC[C@H](N)C(=O)O)C(C)C; Benzoyl(4-tBu) = CC(C)(C)c1ccc(C(=O)*)cc1; Lys(Et2) = CCN(CC)CCCC[C@H](N)C(=O)O; Benzoyl(4-OMe) = COc1ccc(C(=O)*)cc1; Benzoyl(4-Me) = Cc1ccc(C(=O)*)cc1; X18 = O=C(Cc1c[nH]c2ccccc12)*; X2 = Cc1cccc(C(=O)*)c1; Boc = CC(C)(C)OC(=O)*; X1 = Cc1ccccc1C(=O)*; Bz = O=C(c1ccccc1)*

How the values were obtained:
[1] = molecular target: T1, Chromobox protein homolog 7 (Homo sapiens) (UniProt O95931); test: Binding affinity to recombinant human C-terminal His-tagged CBX7 chromodomain (8 to 62 residues) expressed in Escherichia coli Rosetta BL21(DE3)pLysS by SPR method
T1 sequence (whole entry): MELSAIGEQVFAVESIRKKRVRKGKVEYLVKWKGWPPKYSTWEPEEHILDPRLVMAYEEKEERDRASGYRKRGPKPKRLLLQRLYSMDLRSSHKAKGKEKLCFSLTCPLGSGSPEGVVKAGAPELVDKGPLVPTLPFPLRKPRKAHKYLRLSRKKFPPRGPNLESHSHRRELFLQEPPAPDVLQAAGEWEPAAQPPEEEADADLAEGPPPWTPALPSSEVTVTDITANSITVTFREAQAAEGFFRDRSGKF

[2] = molecular target: Chromobox protein homolog 5 (Homo sapiens, UniProt P45973); test: Antagonist activity at recombinant human N-terminal His-tagged CBX5 chromodomain (18 to 75 residues) expressed in Escherichia coli Rosetta BL21(DE3)pLysS using ARTKQTARK(Me3)STGGKAPRKQL-K(Biotin)-NH2 measured after 30 mins by AlphaScreen assay
Chain of Chromobox protein homolog 5 (P45973 whole entry, the tested form may be a part): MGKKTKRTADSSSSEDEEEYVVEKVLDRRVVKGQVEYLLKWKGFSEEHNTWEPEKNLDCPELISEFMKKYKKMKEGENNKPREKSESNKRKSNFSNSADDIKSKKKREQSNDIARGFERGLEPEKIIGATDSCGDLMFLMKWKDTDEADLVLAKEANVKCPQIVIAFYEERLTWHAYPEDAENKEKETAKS

[3] = molecular target: T2, Chromobox protein homolog 7 (Homo sapiens, UniProt O95931); test: Antagonist activity at recombinant human C-terminal His-tagged CBX7 chromodomain (8 to 62 residues) expressed in Escherichia coli Rosetta BL21(DE3)pLysS using biotin-labeled UNC4195 measured after 30 mins by AlphaScreen assay
T2 sequence (O95931 whole entry): T1 sequence (whole entry)

[4] = molecular target: T3, Chromobox protein homolog 8 (Homo sapiens, UniProt Q9HC52); test: Antagonist activity at recombinant human N-terminal His-tagged CBX8 chromodomain (8 to 61 residues) expressed in Escherichia coli Rosetta BL21(DE3)pLysS using biotin-labeled UNC4195 measured after 30 mins by AlphaScreen assay
T3 sequence (Q9HC52 whole entry): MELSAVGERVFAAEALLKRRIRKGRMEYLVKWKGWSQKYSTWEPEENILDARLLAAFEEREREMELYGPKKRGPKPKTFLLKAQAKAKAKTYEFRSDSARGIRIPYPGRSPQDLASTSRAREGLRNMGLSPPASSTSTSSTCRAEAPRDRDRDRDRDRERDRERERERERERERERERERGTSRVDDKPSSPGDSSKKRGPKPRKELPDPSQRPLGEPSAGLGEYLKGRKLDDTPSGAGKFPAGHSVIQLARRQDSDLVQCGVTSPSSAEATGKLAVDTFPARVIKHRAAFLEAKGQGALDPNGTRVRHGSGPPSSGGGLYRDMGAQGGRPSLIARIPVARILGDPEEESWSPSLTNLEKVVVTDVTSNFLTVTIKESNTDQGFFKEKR

[5] = molecular target: T4, Chromodomain Y-like protein 2 (Homo sapiens, UniProt Q8N8U2); test: Antagonist activity at recombinant human C-terminal His-tagged CDYL2 chromodomain (1 to 75 residues) expressed in Escherichia coli Rosetta BL21(DE3)pLysS using biotin-labeled UNC4195 measured after 30 mins by AlphaScreen assay
T4 sequence (Q8N8U2 whole entry): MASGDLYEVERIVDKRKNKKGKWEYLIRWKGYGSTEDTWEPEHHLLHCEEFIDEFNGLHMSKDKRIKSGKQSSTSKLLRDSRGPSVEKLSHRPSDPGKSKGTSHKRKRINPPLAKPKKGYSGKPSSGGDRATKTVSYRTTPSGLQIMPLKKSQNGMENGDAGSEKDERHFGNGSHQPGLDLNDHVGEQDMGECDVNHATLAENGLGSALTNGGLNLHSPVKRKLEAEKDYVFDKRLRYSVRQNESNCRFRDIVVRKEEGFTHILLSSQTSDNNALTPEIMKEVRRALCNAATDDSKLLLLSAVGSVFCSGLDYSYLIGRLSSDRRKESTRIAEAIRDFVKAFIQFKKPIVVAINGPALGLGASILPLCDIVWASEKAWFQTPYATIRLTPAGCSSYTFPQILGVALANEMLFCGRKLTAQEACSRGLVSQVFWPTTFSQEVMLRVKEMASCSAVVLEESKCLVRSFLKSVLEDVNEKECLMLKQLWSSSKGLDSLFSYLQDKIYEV

[6] = molecular target: T5, E3 SUMO-protein ligase CBX4 (Homo sapiens, UniProt O00257); test: Antagonist activity at recombinant human N-terminal His-tagged CBX4 chromodomain (8 to 65 residues) expressed in Escherichia coli Rosetta BL21(DE3)pLysS using biotin-labeled UNC4195 measured after 30 mins by AlphaScreen assay
T5 sequence (O00257 whole entry): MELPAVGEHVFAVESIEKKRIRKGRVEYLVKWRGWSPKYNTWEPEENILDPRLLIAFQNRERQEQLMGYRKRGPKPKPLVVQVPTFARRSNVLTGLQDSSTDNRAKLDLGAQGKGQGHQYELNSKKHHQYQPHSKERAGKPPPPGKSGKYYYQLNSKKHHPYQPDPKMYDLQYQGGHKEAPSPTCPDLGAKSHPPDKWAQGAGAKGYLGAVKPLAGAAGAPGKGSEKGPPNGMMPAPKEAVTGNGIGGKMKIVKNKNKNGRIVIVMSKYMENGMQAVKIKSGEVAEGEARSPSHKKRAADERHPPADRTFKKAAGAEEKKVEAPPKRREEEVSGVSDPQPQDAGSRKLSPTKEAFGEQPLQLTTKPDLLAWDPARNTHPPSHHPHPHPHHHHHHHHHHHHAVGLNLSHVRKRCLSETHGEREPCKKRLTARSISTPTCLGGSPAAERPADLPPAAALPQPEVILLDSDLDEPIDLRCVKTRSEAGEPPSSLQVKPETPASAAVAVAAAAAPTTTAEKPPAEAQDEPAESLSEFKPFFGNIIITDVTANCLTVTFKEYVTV

Row | Compound | Activity [1] | IC50 [2] [µM] | IC50 [3] [µM] | IC50 [4] [µM] | IC50 [5] [µM] | IC50 [6] [µM]
1 | CCN(CC)CCCC[C@H](NC(=O)[C@H](CC(C)C)NC(=O)[C@H](C)NC(=O)[C@H](Cc1ccccc1)NC(=O)c1cccc(C)c1)C(=O)N[C@@H](CO)C(=O)OC (X2-FAL[Lys(Et2)]S-OMe) | Active | – | – | – | – | –
2 | CCN(CC)CCCC[C@H](NC(=O)[C@H](CC(C)C)NC(=O)[C@H](C)NC(=O)[C@H](Cc1ccc(CNC(=O)OC(C)(C)C)cc1)NC(=O)c1ccc(C(C)(C)C)cc1)C(=O)N[C@@H](CO)C(=O)OC ({Benzoyl(4-tBu)}-[Phe(4-CH2NH2)](Boc)AL[Lys(Et2)]S-OMe) | – | 44 | 0.056 | 1.7 | 0.16 | –
3 | COC(=O)[C@H](CO)NC(=O)[C@H](CCCCN(C(C)=O)C1CC2CCC1C2)NC(=O)[C@H](CC(C)C)NC(=O)[C@H](C)NC(=O)[C@H](Cc1ccccc1)NC(=O)CNC(=O)c1ccccc1 (stereo partly specified) (Bz-GFAL[X17]S-OMe) | – | > 60 | > 60 | > 60 | 38 | > 60
4 | COC(=O)[C@H](CO)NC(=O)[C@H](CCCCN(C)C1CNC1)NC(=O)[C@H](CC(C)C)NC(=O)[C@H](C)NC(=O)[C@H](Cc1ccccc1)NC(=O)CNC(=O)c1ccccc1 (Bz-GFAL[X19]S-OMe) | – | > 60 | > 60 | > 60 | 8.6 | > 60
5 | CCN(CC)CCCC[C@H](NC(=O)[C@H](CC(C)C)NC(=O)[C@H](C)NC(=O)[C@H](Cc1ccccc1)NC(=O)CNC(=O)c1ccccc1)C(=O)N[C@@H](CO)C(=O)OC (Bz-GFAL[Lys(Et2)]S-OMe) | – | – | – | – | – | 46
6 | COC(=O)[C@H](CO)NC(=O)[C@H](CCCCNC1CC2CCC1C2)NC(=O)[C@H](CC(C)C)NC(=O)[C@H](C)NC(=O)[C@H](Cc1ccccc1)NC(=O)CNC(=O)c1ccccc1 (stereo partly specified) (Bz-GFAL[X8]S-OMe) | – | > 60 | 51 | > 60 | 5 | > 60
7 | CCN(CC)CCCC[C@H](NC(=O)[C@H](CC(C)C)NC(=O)[C@H](C)NC(=O)[C@H](Cc1ccccc1)NC(=O)Cc1ccc2ccccc2c1)C(=O)N[C@@H](CO)C(=O)OC ({Acetyl(2-naphthyl)}-FAL[Lys(Et2)]S-OMe) | – | > 60 | 1.1 | 24 | 0.084 | 5.2
8 | CCN(CCCC[C@H](NC(=O)[C@H](CC(C)C)NC(=O)[C@H](C)NC(=O)[C@H](Cc1ccccc1)NC(=O)c1ccc(C(C)(C)C)cc1)C(=O)N[C@@H](CO)C(=O)OC)C(C)C ({Benzoyl(4-tBu)}-FAL[Lys(Et,iPr)]S-OMe) | – | > 60 | – | 1 | – | –
9 | COC(=O)[C@H](CO)NC(=O)[C@H](CCCCNC1CN2CCC1CC2)NC(=O)[C@H](CC(C)C)NC(=O)[C@H](C)NC(=O)[C@H](Cc1ccccc1)NC(=O)CNC(=O)c1ccccc1 (stereo partly specified) (Bz-GFAL[X15]S-OMe) | – | > 60 | > 60 | > 60 | 24 | > 60
10 | CCN(CC)CCCC[C@H](NC(=O)[C@H](CC(C)C)NC(=O)[C@H](C)NC(=O)[C@H](Cc1ccccc1)NC(=O)c1ccccc1C)C(=O)N[C@@H](CO)C(=O)OC (X1-FAL[Lys(Et2)]S-OMe) | Active | – | – | – | – | –
11 | CCN(CC)CCCC[C@H](NC(=O)[C@H](CC(C)C)NC(=O)[C@H](C)NC(=O)[C@H](Cc1ccccc1)NC(=O)c1ccc(C)cc1)C(=O)N[C@@H](CO)C(=O)OC ({Benzoyl(4-Me)}-FAL[Lys(Et2)]S-OMe) | Active | – | – | – | – | –
12 | CCN(CC)CCCC[C@H](NC(=O)[C@H](CC(C)C)NC(=O)[C@H](C)NC(=O)[C@H](Cc1ccccc1)NC(=O)c1ccc(OC)cc1)C(=O)N[C@@H](CO)C(=O)OC ({Benzoyl(4-OMe)}-FAL[Lys(Et2)]S-OMe) | – | 12 | 0.25 | 3.3 | 0.26 | 0.75
13 | CCN(CC)CCCC[C@H](NC(=O)[C@H](CC(C)C)NC(=O)[C@H](C)NC(=O)[C@H](Cc1ccc(CN)cc1)NC(=O)c1ccc(C(C)(C)C)cc1)C(=O)N[C@@H](CO)C(=O)OC ({Benzoyl(4-tBu)}-[Phe(4-CH2NH2)]AL[Lys(Et2)]S-OMe) | – | 53 | 0.063 | 2.4 | 0.075 | –
14 | COC(=O)[C@H](CO)NC(=O)[C@H](CCCCNC(N(C)C)=[N+](C)C)NC(=O)[C@H](CC(C)C)NC(=O)[C@H](C)NC(=O)[C@H](Cc1ccccc1)NC(=O)CNC(=O)c1ccccc1 (Bz-GFAL[X3]S-OMe) | – | > 60 | > 60 | > 60 | – | > 60
15 | COC(=O)[C@H](CO)NC(=O)[C@H](CCCCNC1C2CC3CC(C2)CC1C3)NC(=O)[C@H](CC(C)C)NC(=O)[C@H](C)NC(=O)[C@H](Cc1ccccc1)NC(=O)CNC(=O)c1ccccc1 (stereo partly specified) (Bz-GFAL[X5]S-OMe) | – | > 60 | > 60 | > 60 | 14 | > 60
16 | CCN(CC)CCCC[C@H](NC(=O)[C@H](CC(C)C)NC(=O)[C@H](C)NC(=O)[C@H](Cc1ccccc1)NC(=O)Cc1c[nH]c2ccccc12)C(=O)N[C@@H](CO)C(=O)OC (X18-FAL[Lys(Et2)]S-OMe) | – | > 60 | 1.7 | 15 | 0.11 | –
17 | CCCN(CCCC[C@H](NC(=O)[C@H](CC(C)C)NC(=O)[C@H](C)NC(=O)[C@H](Cc1ccccc1)NC(=O)c1ccc(C(C)(C)C)cc1)C(=O)N[C@@H](CO)C(=O)OC)C(C)C ({Benzoyl(4-tBu)}-FAL[X14]S-OMe) | – | > 60 | 0.032 | – | 0.11 | 0.062
